Five compounds from US20240285571A1, “METHODS OF TREATING BONE INFECTIONS” (MICROBION CORPORATION, priority 2020, published 2024) can be followed below.

Values after ≈ are worked out from the molar mass of the structure shown.

In experiment [1] the test system is non-speciated Corynebacterium. The experiment can be described thus: MIC of baseline clinical isolates (Example 8). Conditions: Corynebacterium non-speciated baseline isolates (N′ = 2), central laboratory, mITT. In kind it is cell-based. On the procedure: (§1) Microbiology was assessed on Day 1 and at the time of any subsequent surgical procedure at the index site. Samples were collected from the infected bone site or involved tissue adjacent to any implant(s), swabs of the deep infection site, and the superficial tissue/wound closure/sinus tract site. Isolation and identification of aerobic and anerobic bacteria was conducted at a central microbiology laboratory (IHMA, Schaumburg, IL) and susceptibility of the isolates to MBN-101 (BisEDT) and comparator agents was performed per Clinical and Laboratory Standards Institute (CLSI). Parallel sets of samples were analyzed by the local clinical site laboratory to guide patient antibiotic treatment.

In experiment [2] the test system is Corynebacterium amycolatum. The experiment can be described thus: MIC of baseline clinical isolates (Example 8). Conditions: Corynebacterium amycolatum baseline isolates (N′ = 1), central laboratory, mITT. In kind it is cell-based. The method, then: as §1
The test system of another experiment is Streptococcus oralis. The experiment can be described thus: MIC of baseline clinical isolates (Example 8). Type of experiment: cell-based. Conditions: Streptococcus oralis baseline isolates (N′ = 1), central laboratory, mITT. The method, then: as §1
Another experiment concerns Dermabacter hominis. The experiment can be described thus: MIC of baseline clinical isolates (Example 8). In kind it is cell-based. Conditions: Dermabacter hominis baseline isolates (N′ = 1), central laboratory, mITT. The method, then:
as §1

Experiment [3] has as its system Corynebacterium resistens. The experiment can be described thus: MIC of baseline clinical isolates (Example 8). In kind it is cell-based. Conditions: Corynebacterium resistens baseline isolates (N′ = 1), central laboratory, mITT. The method, then:
as §1

For a further experiment, the system named is Corynebacterium jeikeium. The experiment can be described thus: MIC of baseline clinical isolates (Example 8). In kind it is cell-based. Conditions: Corynebacterium jeikeium baseline isolates (N′ = 2), central laboratory, mITT. The method, then: as §1
The test system of experiment [4] is vancomycin-intermediate Staphylococcus aureus. The experiment can be described thus: Broth microdilution MIC (Example 6). Type of experiment: cell-based. On the procedure: (§2) Test Compounds: The test agents BisEDT (MB-1-B3; Lot No. ED268-1-11-01), MB-2B, and MB-6 were stored at room temperature, in the dark, until assayed. The solvent and diluent for the test agents was DMSO (Sigma; St. Louis, MO; Lot No. SHBB9319V) and the prepared stock concentration was 6,464 μg/mL (101× the final test concentration).
(§3) Test compounds were evaluated at a concentration range of 0.06-64 μg/mL. For Gram-negative test isolates, amikacin and ceftazidime (alone and with clavulanate at a fixed concentration of 4 μg/mL) were evaluated over a concentration range of 0.06-64 μg/mL; meropenem and levofloxacin were evaluated over a concentration range of 0.008-8 μg/mL. For the testing of S. aureus, clindamycin, daptomycin, levofloxacin and vancomycin were evaluated at a concentration range of 0.008-8 μg/mL; linezolid was tested from 0.03-32 μg/mL.
(§4) Media: Cation-adjusted Mueller Hinton broth (CAMHB; BD; Lot No. 8190586) was used as the medium for testing (2, 3). For testing daptomycin, calcium was supplemented with […] Ca^2+, resulting in a final concentration of […] Ca^2+ (2, 3).
(§5) MIC Assay Procedure: MIC values were determined using a broth microdilution procedure described by CLSI (2, 3). Automated liquid handlers (Multidrop 384, Labsystems, Helsinki, Finland; Biomek 2000 and Biomek F X, Beckman Coulter, Fullerton CA) were used to conduct serial dilutions and liquid transfers.
(§6) To prepare the drug mother plates, which would provide the serial drug dilutions for the replicate daughter plates, the wells of columns 2 through 12 of standard 96-well microdilution plates (Costar 3795) were filled with 150 μl of the appropriate diluent for each row of drug. The test articles and comparator compounds (300 μl at 101× the highest concentration to be tested) were dispensed into the appropriate wells in column 1. The Biomek 2000 was then used to make 2-fold serial dilutions in the mother plates from column 1 through column 11. The wells of column 12 contained no drug and served as the organism growth control wells for the assay.
(§7) The daughter plates were loaded with 190 μL per well of RPMI using the Multidrop 384. The test panels were prepared on the Biomek FX instrument which transferred 2 μL of drug solution from each well of a mother plate to the corresponding well of each daughter plate in a single step.
(§8) A standardized inoculum of each test organism was prepared per CLSI methods to equal a 0.5 McFarland standard, followed by a dilution of 1:20. The plates were then inoculated with 10 μL of the diluted inoculum using the Biomek 2000 from low to high drug concentration resulting in a final concentration of approximately 5×10^5 CFU/mL.
(§9) Plates were stacked 3-4 high, covered with a lid on the top plate, placed into plastic bags, and incubated at 35° C. for 16 to 20 hr (vancomycin was read for S. aureus after 24 hr incubation time). The MIC was recorded as the lowest concentration of drug that inhibited visible growth of the organism.

The subject of experiment [5] is relevant ATCC QC organisms. The experiment can be described thus: Broth microdilution MIC, QC (Example 6). In kind it is cell-based. Conditions: S. aureus ATCC 29213. The method, then:
as §2, §3
Organisms: The test organisms as shown in Tables 11-15 consisted of clinical isolates from the Micromyx (MMX) repository and reference strains from the American Type Culture Collection (ATCC; Manassas, VA), National Collection of Type Cultures (NCTC; Public Health England, Salisbury, UK), the Network on Antimicrobial Resistance in Staphylococcus aureus (NARSA; BEI Resources, Manassas, VA), and the Centers for Disease Control and Prevention (CDC; Atlanta, GA). The test organisms were maintained frozen at −80° C. Prior to testing, the isolates were cultured on Tryptic Soy Agar with 5% sheep blood (BAP; Becton Dickson [BD]/BBL; Sparks, MD; Lot Nos. 9080650 and 9108563) at 35° C. Relevant ATCC quality control (QC) organisms (Table 16) were included during testing in accordance with CLSI guidelines (3). Further details on the genetic characterization of the isolates where available can be found in Table 17.
as §4, §5, §6, §7, §8, §9

The next experiment concerns S. aureus. The experiment can be described thus: Broth microdilution MIC (Example 5). In kind it is cell-based, Staphylococcus aureus. Conditions: Staphylococcus aureus, ATCC 29213 / MSSA, S. aureus MMX 101 (ATCC 29213); QC; MSSA; read-out: MIC. The method, then: Test and Comparator Agents: The test agents were stored at room temperature until assayed. […] The stock solutions were allowed to stand for at least 1 hr prior to use to auto-sterilize.
TestMedia: Test media were prepared and stored in accordance with guidelines from CLSI (4, 6, 7).
Broth Microdilution MC Testing (Aerobic Bacteria and Yeast): The broth microdilution assay method employed for the susceptibility testing of aerobic bacteria (excluding N. gonorrhoeae which was evaluated by agar dilution) and yeast essentially followed the procedures described by CLSI (3, 4, 7, 8) and employed automated liquid handlers to conduct serial dilutions and liquid transfers. […] These would become the ‘mother plates’ from which ‘daughter’ or test plates would be prepared. The drugs (300 μL at 40× the desired top concentration in the test plates) were dispensed into the appropriate well in Column 1 of the mother plates. The Biomek 2000 was used to make serial two-fold dilutions through Column 11 in the “mother plate”. The wells of Column 12 contained no drug and ultimately served as the organism growth control wells.
The daughter plates were prepared using the Biomek FX which transferred 5 μL of drug solution from each well of a mother plate to the corresponding well of the correct daughter plate in a single step.
A standardized inoculum of each organism was prepared per CLSI methods (3, 7). Isolated colonies of each test isolate were picked from the primary plate and a suspension was prepared to equal a 0.5 McFarland turbidity standard. Standardized suspensions were then diluted […] (1:100 for yeast, 1:20 for bacteria). After dilution, the inoculum suspensions were then transferred to compartments of sterile reservoirs divided by length (Beckman Coulter), and the Biomek 2000 was used to inoculate all plates. Daughter plates were placed on the Biomek 2000 in reverse orientation so that plates were inoculated from low to high drug concentration.
The Biomek 2000 delivered 10 μL of standardized inoculum into each well of the appropriate daughter plate for an additional 1:20 dilution.
Plates were stacked 4 high, covered with a lid on the top plate, placed into plastic bags, and incubated at 35° C. for approximately 24-48 hr for all yeast isolates and 16-24 hr for aerobic bacteria. Plates were viewed from the bottom using a plate viewer. […] MIC endpoints for the test agents and control compounds were read per CLSI criteria (3, 7).

As to `CO/N=C(\C(=O)N[C@@H]1C(=O)N2C(C(=O)O)=C(CSc3nc(=O)c(O)nn3C)CS[C@H]12)c1csc(N)n1` [CRO], the “Mean MIC” value was found to be 0.75 µg/mL in [1]; 1.00 µg/mL in experiment [2]; 0.06 µg/mL in the experiment on Streptococcus oralis; 0.50 µg/mL in the experiment on Dermabacter hominis; 4.00 µg/mL in experiment [3]; 4.00 µg/mL in the experiment on Corynebacterium jeikeium. The “n (% resistant)” value is 0 (0.0) n (%) in [1]; 0 (0.0) n (%) in experiment [2]; 0 (0.0) n (%) with Streptococcus oralis; 0 (0.0) n (%) with Dermabacter hominis; 1 (100.0) n (%) in experiment [3]; 2 (100.0) n (%) in the experiment on Corynebacterium jeikeium.
Take `CCCCCCCCCC(=O)N[C@@H](Cc1c[nH]c2ccccc12)C(=O)N[C@H](CC(N)=O)C(=O)N[C@@H](CC(=O)O)C(=O)N[C@@H]1C(=O)NCC(=O)N[C@@H](CCCN)C(=O)N[C@@H](CC(=O)O)C(=O)N[C@H](C)C(=O)N[C@@H](CC(=O)O)C(=O)NCC(=O)N[C@H](CO)C(=O)N[C@@H]([C@H](C)CC(=O)O)C(=O)N[C@@H](CC(=O)c2ccccc2N)C(=O)O[C@@H]1C` [DAP]: the MIC amounted to 1 µg/mL in experiment [4] (S. aureus isolate NRS 1 (hVISA)); 0.25 µg/mL in [4] (S. aureus isolate NRS 2); 1 µg/mL in experiment [4] (S. aureus isolate NRS 3); 0.5 µg/mL in [4] (S. aureus isolate NRS 4); 2 µg/mL in experiment [4] (S. aureus isolate NRS 13); 0.5 µg/mL in experiment [4] (S. aureus isolate NRS 18). Moreover, the minimal inhibitory concentration (MIC) was found to be 2 µg/mL in [4] (S. aureus isolate NRS 22), 0.5 µg/mL in [4] (S. aureus isolate NRS 24 (hVISA)), 0.25 µg/mL in experiment [4] (S. aureus isolate NRS 27) and 0.5 µg/mL in experiment [5].
For the compound `CC[C@H]1OC(=O)[C@H](C)[C@@H](O[C@H]2C[C@@](C)(OC)[C@@H](O)[C@H](C)O2)[C@H](C)[C@@H](O[C@@H]2O[C@H](C)C[C@H](N(C)C)[C@H]2O)[C@](C)(O)C[C@@H](C)C(=O)[C@H](C)[C@@H](O)[C@]1(C)O` [ERY], the “Mean MIC” value in experiment [1] was 2.02 µg/mL; in [2], 4.00 µg/mL; in the experiment with Streptococcus oralis, 1.00 µg/mL; in the experiment on Dermabacter hominis, 2.00 µg/mL; in experiment [3] it was 0.02 µg/mL; in the experiment on Corynebacterium jeikeium it was 2.25 µg/mL. Also, the “n (% resistant)” value in experiment [1] is listed as 1 (50.0) n (%); in [2], 1 (100.0) n (%); with Streptococcus oralis it was 1 (100.0) n (%); with Dermabacter hominis it was 1 (100.0) n (%); in [3], 0 (0.0) n (%); with Corynebacterium jeikeium it was 1 (50.0) n (%).
For `Cc1onc(-c2ccccc2)c1C(=O)N[C@@H]1C(=O)N2[C@@H]1SC(C)(C)[C@@H]2C(=O)O` [Oxacillin], the MIC in the experiment with S. aureus amounted to 0.2 µg/mL (≈ 0.498 µM).
On to `CC1(C)S[C@@H]2[C@H](NC(=O)Cc3ccccc3)C(=O)N2[C@H]1C(=O)O` [PEN], for which the “Mean MIC” value in experiment [1] came to 2.06 µg/mL; in experiment [2] it was 1.00 µg/mL; in the experiment with Streptococcus oralis, 0.06 µg/mL; in the experiment on Dermabacter hominis, 0.50 µg/mL; in [3] it was 4.00 µg/mL; in the experiment on Corynebacterium jeikeium, 4.00 µg/mL. Also, the “n (% resistant)” value is on record as 0 (0.0) n (%) in [2]; 0 (0.0) n (%) in the experiment on Streptococcus oralis; 0 (0.0) n (%) in the experiment with Dermabacter hominis; 1 (100.0) n (%) in experiment [3]; 2 (100.0) n (%) with Corynebacterium jeikeium.
